Data reported in US20240158446A1, “CYCLIC COMPOUND HAVING SELECTIVE INHIBITORY ACTION ON KRAS OVER HRAS AND NRAS” (CHUGAI SEIYAKU KABUSHIKI KAISHA, priority 2021, published 2024).
*1 amine or outer side, *2 acyl side, *3 side chain or, on linkers, in order; H or OH if unused. Where a SMILES comes first, the peptide text is derived from it. Bridges are numbered along the chain shown (N, C = ends). [ ]: non-standard residue; d: D form. The star is where a group is joined. hPhe(3,5-F2-4-CF3) = N[C@@H](CCc1cc(F)c(C(F)(F)F)c(F)c1)C(=O)O; NPrPhe(4-CF3) = CCCN[C@@H](Cc1ccc(C(F)(F)F)cc1)C(=O)O; NMeAbu(4,4,4-F3) = CN[C@@H](CC(F)(F)F)C(=O)O; X13 = O=C([C@@H](N[*:1])C1CC(F)(F)C1)[*:2]; NMeGly(cPent) = CN[C@H](C(=O)O)C1CCCC1; X8 = C[C@@](N[*:1])(C(=O)[*:2])C1CC1; X11 = CCC[C@](C)(N[*:1])C(=O)[*:2]; αMeCha = C[C@](N)(CC1CCCCC1)C(=O)O; NMeD = CN[C@@H](CC(=O)O)C(=O)O; NMeL = CN[C@@H](CC(C)C)C(=O)O; αMeL = CC(C)C[C@](C)(N)C(=O)O; αMeV = CC(C)[C@](C)(N)C(=O)O; αMeS = C[C@](N)(CO)C(=O)O; Iva = CC[C@](C)(N)C(=O)O; Morpholide = C1CN(*)CCO1; Ac5c = NC1(C(=O)O)CCCC1; Aze = O=C(O)[C@@H]1CCN1; Sar = CNCC(=O)O

What was measured:
[1] = target: GDP-bound KRAS wild-type protein (Homo sapiens, UniProt P01116); assay: Binding to KRAS by surface plasmon resonance (SPR), Single Cycle Kinetics; conditions: SPR Single Cycle Kinetics, GDP-bound KRAS wild-type protein, 1:1 binding model; read-out: KRAS KD
Chain of GDP-bound KRAS wild-type protein (P01116 whole entry): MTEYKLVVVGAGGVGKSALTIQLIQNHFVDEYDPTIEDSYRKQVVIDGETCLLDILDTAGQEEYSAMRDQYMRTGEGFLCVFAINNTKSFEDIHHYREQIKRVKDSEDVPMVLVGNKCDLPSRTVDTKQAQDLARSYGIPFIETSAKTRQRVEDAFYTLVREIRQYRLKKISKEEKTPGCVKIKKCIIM

[2] = target: GDP-bound NRAS wild-type protein (Homo sapiens, UniProt P01111); assay: Binding to NRAS by surface plasmon resonance (SPR), Single Cycle Kinetics; conditions: SPR, GDP-bound NRAS wild-type protein vs GDP-bound KRAS wild-type protein
Chain of GDP-bound NRAS wild-type protein (P01111 whole entry): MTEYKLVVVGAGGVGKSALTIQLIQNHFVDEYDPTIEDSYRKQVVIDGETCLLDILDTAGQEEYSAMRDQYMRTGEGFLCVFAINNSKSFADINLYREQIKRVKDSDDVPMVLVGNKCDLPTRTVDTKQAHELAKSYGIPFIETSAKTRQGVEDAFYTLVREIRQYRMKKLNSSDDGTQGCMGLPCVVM

[3] = target: GDP-bound HRAS wild-type protein (Homo sapiens, UniProt P01112); assay: Binding to HRAS by surface plasmon resonance (SPR), Single Cycle Kinetics; conditions: SPR, GDP-bound HRAS wild-type protein vs GDP-bound KRAS wild-type protein
Chain of GDP-bound HRAS wild-type protein (P01112 whole entry): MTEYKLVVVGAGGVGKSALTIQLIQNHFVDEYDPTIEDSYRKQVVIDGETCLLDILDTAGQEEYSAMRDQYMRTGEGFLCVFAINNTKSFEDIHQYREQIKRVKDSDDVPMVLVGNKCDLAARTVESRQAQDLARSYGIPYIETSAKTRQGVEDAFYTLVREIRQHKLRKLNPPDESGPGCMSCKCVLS

| Structure (SMILES) | Kd [1] [nM] | NRAS/KRAS (ratio of KD value with respect to NRAS to KD value with respect to KRAS) [2] | HRAS/KRAS (ratio of KD value with respect to HRAS to KD value with respect to KRAS) [3] |
| --- | --- | --- | --- |
| CCCN1C(=O)CN(C)C(=O)[C@@H]2CCN2C(=O)[C@H]([C@@H](C)CC)NC(=O)[C@H](CC(C)C)N(C)C(=O)C[C@@H](C(=O)N2CCOCC2)N(C)C(=O)[C@H](CC(F)(F)F)N(C)C(=O)C2(CCCC2)NC(=O)[C@@H]2CCCN2C(=O)[C@H](CCc2cc(F)c(C(F)(F)F)c(F)c2)NC(=O)CN(C)C(=O)[C@@H]1Cc1ccc(C(F)(F)F)cc1 [PP0784] ([NMeL]I[Aze][Sar][NPrPhe(4-CF3)][Sar][hPhe(3,5-F2-4-CF3)]P[Ac5c][NMeAbu(4,4,4-F3)][NMeD]-Morpholide; lactam N-11) | 17 | B (a compound having 3 or more and less than 10 is denoted as B) | B (a compound having 3 or more and less than 10 is denoted as B) |
| CCCN1C(=O)CN(C)C(=O)[C@@H]2CCN2C(=O)[C@H](C2CC(F)(F)C2)NC(=O)[C@H](CC(C)C)N(C)C(=O)C[C@@H](C(=O)N2CCOCC2)N(C)C(=O)[C@H](C2CCCC2)N(C)C(=O)C2(CCCC2)NC(=O)[C@@H]2CCCN2C(=O)[C@H](CCc2cc(F)c(C(F)(F)F)c(F)c2)NC(=O)CN(C)C(=O)[C@@H]1Cc1ccc(C(F)(F)F)cc1 [PP0786] ([NMeL][X13][Aze][Sar][NPrPhe(4-CF3)][Sar][hPhe(3,5-F2-4-CF3)]P[Ac5c][NMeGly(cPent)][NMeD]-Morpholide; lactam N-11) | 0.6 | B (a compound having 3 or more and less than 10 is denoted as B) | B (a compound having 3 or more and less than 10 is denoted as B) |
| CCCN1C(=O)[C@@H]2CCN2C(=O)CN(C)C(=O)[C@H](C2CC(F)(F)C2)NC(=O)[C@H](CC(C)C)N(C)C(=O)C[C@@H](C(=O)N2CCOCC2)N(C)C(=O)[C@H](C2CCCC2)N(C)C(=O)C2(CCCC2)NC(=O)[C@@H]2CCCN2C(=O)[C@H](CCc2cc(F)c(C(F)(F)F)c(F)c2)NC(=O)CN(C)C(=O)[C@@H]1Cc1ccc(C(F)(F)F)cc1 [PP0787] ([NMeL][X13][Sar][Aze][NPrPhe(4-CF3)][Sar][hPhe(3,5-F2-4-CF3)]P[Ac5c][NMeGly(cPent)][NMeD]-Morpholide; lactam N-11) | 0.34 | C (A compound having a KD ratio of 0.1 or more and less than 3 is denoted as C) | B (a compound having 3 or more and less than 10 is denoted as B) |
| CCCN1C(=O)CN(C)C(=O)CN(C)C(=O)[C@H]([C@@H](C)CC)NC(=O)[C@H](CC(C)C)N(C)C(=O)C[C@@H](C(=O)N(C)C)N(C)C(=O)[C@H](C2CCCC2)N(C)C(=O)C2(CCCC2)NC(=O)[C@@H]2CCCN2C(=O)[C@H](CCc2cc(F)c(C(F)(F)F)c(F)c2)NC(=O)CN(C)C(=O)[C@@H]1Cc1ccc(C(F)(F)F)cc1 [PP0788] ([NMeL]I[Sar][Sar][NPrPhe(4-CF3)][Sar][hPhe(3,5-F2-4-CF3)]P[Ac5c][NMeGly(cPent)][NMeD]-NMe2; lactam N-11) | 0.054 | B (a compound having 3 or more and less than 10 is denoted as B) | C (A compound having a KD ratio of 0.1 or more and less than 3 is denoted as C) |
| CCCN1C(=O)[C@@H]2CCN2C(=O)CN(C)C(=O)[C@H]([C@@H](C)CC)NC(=O)[C@H](CC(C)C)N(C)C(=O)C[C@@H](C(=O)N2CCOCC2)N(C)C(=O)[C@H](C2CCCC2)N(C)C(=O)C2(CCCC2)NC(=O)[C@@H]2CCCN2C(=O)[C@H](CCc2cc(F)c(C(F)(F)F)c(F)c2)NC(=O)CN(C)C(=O)[C@@H]1Cc1ccc(C(F)(F)F)cc1 [PP0789] ([NMeL]I[Sar][Aze][NPrPhe(4-CF3)][Sar][hPhe(3,5-F2-4-CF3)]P[Ac5c][NMeGly(cPent)][NMeD]-Morpholide; lactam N-11) | 0.12 | C (A compound having a KD ratio of 0.1 or more and less than 3 is denoted as C) | B (a compound having 3 or more and less than 10 is denoted as B) |
| CCCN1C(=O)[C@@H]2CCN2C(=O)CN(C)C(=O)[C@H]([C@@H](C)CC)NC(=O)[C@H](CC(C)C)N(C)C(=O)C[C@@H](C(=O)N2CCOCC2)N(C)C(=O)[C@H](C2CCCC2)N(C)C(=O)[C@](C)(CC)NC(=O)[C@@H]2CCCN2C(=O)[C@H](CCc2cc(F)c(C(F)(F)F)c(F)c2)NC(=O)CN(C)C(=O)[C@@H]1Cc1ccc(C(F)(F)F)cc1 [PP0790] ([NMeL]I[Sar][Aze][NPrPhe(4-CF3)][Sar][hPhe(3,5-F2-4-CF3)]P[Iva][NMeGly(cPent)][NMeD]-Morpholide; lactam N-11) | 0.56 | C (A compound having a KD ratio of 0.1 or more and less than 3 is denoted as C) | B (a compound having 3 or more and less than 10 is denoted as B) |
| CCCN1C(=O)[C@@H]2CCN2C(=O)CN(C)C(=O)[C@H]([C@@H](C)CC)NC(=O)[C@H](CC(C)C)N(C)C(=O)C[C@@H](C(=O)N2CCOCC2)N(C)C(=O)[C@H](C2CCCC2)N(C)C(=O)[C@](C)(C2CC2)NC(=O)[C@@H]2CCCN2C(=O)[C@H](CCc2cc(F)c(C(F)(F)F)c(F)c2)NC(=O)CN(C)C(=O)[C@@H]1Cc1ccc(C(F)(F)F)cc1 [PP0791] ([NMeL]I[Sar][Aze][NPrPhe(4-CF3)][Sar][hPhe(3,5-F2-4-CF3)]P[X8][NMeGly(cPent)][NMeD]-Morpholide; lactam N-11) | 0.98 | C (A compound having a KD ratio of 0.1 or more and less than 3 is denoted as C) | B (a compound having 3 or more and less than 10 is denoted as B) |
| CCCN1C(=O)[C@@H]2CCN2C(=O)CN(C)C(=O)[C@H]([C@@H](C)CC)NC(=O)[C@H](CC(C)C)N(C)C(=O)C[C@@H](C(=O)N2CCOCC2)N(C)C(=O)[C@H](C2CCCC2)N(C)C(=O)[C@](C)(C(C)C)NC(=O)[C@@H]2CCCN2C(=O)[C@H](CCc2cc(F)c(C(F)(F)F)c(F)c2)NC(=O)CN(C)C(=O)[C@@H]1Cc1ccc(C(F)(F)F)cc1 [PP0792] ([NMeL]I[Sar][Aze][NPrPhe(4-CF3)][Sar][hPhe(3,5-F2-4-CF3)]P[αMeV][NMeGly(cPent)][NMeD]-Morpholide; lactam N-11) | 0.9 | C (A compound having a KD ratio of 0.1 or more and less than 3 is denoted as C) | B (a compound having 3 or more and less than 10 is denoted as B) |
| CCCN1C(=O)[C@@H]2CCN2C(=O)CN(C)C(=O)[C@H]([C@@H](C)CC)NC(=O)[C@H](CC(C)C)N(C)C(=O)C[C@@H](C(=O)N2CCOCC2)N(C)C(=O)[C@H](C2CCCC2)N(C)C(=O)[C@](C)(CCC)NC(=O)[C@@H]2CCCN2C(=O)[C@H](CCc2cc(F)c(C(F)(F)F)c(F)c2)NC(=O)CN(C)C(=O)[C@@H]1Cc1ccc(C(F)(F)F)cc1 [PP0794] ([NMeL]I[Sar][Aze][NPrPhe(4-CF3)][Sar][hPhe(3,5-F2-4-CF3)]P[X11][NMeGly(cPent)][NMeD]-Morpholide; lactam N-11) | 1.5 | C (A compound having a KD ratio of 0.1 or more and less than 3 is denoted as C) | B (a compound having 3 or more and less than 10 is denoted as B) |
| CCCN1C(=O)[C@@H]2CCN2C(=O)CN(C)C(=O)[C@H]([C@@H](C)CC)NC(=O)[C@H](CC(C)C)N(C)C(=O)C[C@@H](C(=O)N2CCOCC2)N(C)C(=O)[C@H](C2CCCC2)N(C)C(=O)[C@](C)(CC(C)C)NC(=O)[C@@H]2CCCN2C(=O)[C@H](CCc2cc(F)c(C(F)(F)F)c(F)c2)NC(=O)CN(C)C(=O)[C@@H]1Cc1ccc(C(F)(F)F)cc1 [PP0795] ([NMeL]I[Sar][Aze][NPrPhe(4-CF3)][Sar][hPhe(3,5-F2-4-CF3)]P[αMeL][NMeGly(cPent)][NMeD]-Morpholide; lactam N-11) | 2.5 | C (A compound having a KD ratio of 0.1 or more and less than 3 is denoted as C) | B (a compound having 3 or more and less than 10 is denoted as B) |
| CCCN1C(=O)[C@@H]2CCN2C(=O)CN(C)C(=O)[C@H]([C@@H](C)CC)NC(=O)[C@H](CC(C)C)N(C)C(=O)C[C@@H](C(=O)N2CCOCC2)N(C)C(=O)[C@H](C2CCCC2)N(C)C(=O)[C@](C)(CC2CCCCC2)NC(=O)[C@@H]2CCCN2C(=O)[C@H](CCc2cc(F)c(C(F)(F)F)c(F)c2)NC(=O)CN(C)C(=O)[C@@H]1Cc1ccc(C(F)(F)F)cc1 [PP0796] ([NMeL]I[Sar][Aze][NPrPhe(4-CF3)][Sar][hPhe(3,5-F2-4-CF3)]P[αMeCha][NMeGly(cPent)][NMeD]-Morpholide; lactam N-11) | 7.5 | C (A compound having a KD ratio of 0.1 or more and less than 3 is denoted as C) | B (a compound having 3 or more and less than 10 is denoted as B) |
| CCCN1C(=O)[C@@H]2CCN2C(=O)CN(C)C(=O)[C@H]([C@@H](C)CC)NC(=O)[C@H](CC(C)C)N(C)C(=O)C[C@@H](C(=O)N2CCOCC2)N(C)C(=O)[C@H](C2CCCC2)N(C)C(=O)[C@](C)(COC)NC(=O)[C@@H]2CCCN2C(=O)[C@H](CCc2cc(F)c(C(F)(F)F)c(F)c2)NC(=O)CN(C)C(=O)[C@@H]1Cc1ccc(C(F)(F)F)cc1 [PP0798] ([NMeL]I[Sar][Aze][NPrPhe(4-CF3)][Sar][hPhe(3,5-F2-4-CF3)]P[αMeS](Me)[NMeGly(cPent)][NMeD]-Morpholide; lactam N-11) | 1.9 | C (A compound having a KD ratio of 0.1 or more and less than 3 is denoted as C) | B (a compound having 3 or more and less than 10 is denoted as B) |
